Data reported in the supplement of paper PMC4862054.

Experiments:
Assay in all cases: normalised response (% of control), CellTox Green; higher = less cell death (100 = DMSO, 0 = benzethonium chloride kill control)
Conditions in all cases: incubation time: 72 h
BT-474 = tested on: BT-474
How it was run: (§1)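 The table gives the normalised signal for a single concentration in each entry. Breast cancer cell lines were seeded (20 µl suspension) into 384-well plates holding compound at 5 concentrations in 10-fold steps over a compound-specific 10,000-fold range and incubated 72 h, then read for CellTox Green fluorescence (485/520 nm) and CellTiter-Glo luminescence. Normalisation on each plate used 0.1 % DMSO (100) and a positive kill control (0).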

BT-549 = tested on: BT-549
How it was run: as §1

CAL-120 = tested on: CAL-120
How it was run: as §1

CAL-148 = tested on: CAL-148
How it was run: as §1

CAL-51 = tested on: CAL-51
How it was run: as §1

CAL-85-1 = tested on: CAL-85-1
How it was run: as §1

DU-4475 = tested on: DU-4475
How it was run: as §1

HCC1143 = tested on: HCC1143
How it was run: as §1

HCC1599 = tested on: HCC1599
How it was run: as §1

HCC1937 = tested on: HCC1937
How it was run: as §1

HDQ-P1 = tested on: HDQ-P1
How it was run: as §1

Hs578T = tested on: Hs578T
How it was run: as §1

MCF-10A = tested on: MCF-10A
How it was run: as §1

MDA-MB-231 = tested on: MDA-MB-231
How it was run: as §1

MDA-MB-436 = tested on: MDA-MB-436
How it was run: as §1

MDA-MB-453 = tested on: MDA-MB-453
How it was run: as §1

MDA-MB-468 = tested on: MDA-MB-468
How it was run: as §1

MFM-223 = tested on: MFM-223
How it was run: as §1

O=C(Nc1c[nH]nc1-c1nc2ccc(CN3CCOCC3)cc2[nH]1)NC1CC1 [AT9283] (1000 nM)
normalised response (BT-474): 89.1% | normalised response (BT-549): 70.5% | normalised response (CAL-120): 57.7% | normalised response (CAL-148): 83.9% | normalised response (CAL-51): 56% | normalised response (CAL-85-1): 37.8% | normalised response (DU-4475): 106% | normalised response (HCC1143): 119% | normalised response (HCC1599): 105% | normalised response (HCC1937): 116% | normalised response (HDQ-P1): 88.2% | normalised response (Hs578T): 83.2% | normalised response (MCF-10A): 88.4% | normalised response (MDA-MB-231): 40.6% | normalised response (MDA-MB-436): 77.6% | normalised response (MDA-MB-453): 101% | normalised response (MDA-MB-468): 65.6% | normalised response (MFM-223): 75%

COc1nc(N)nc2c1ncn2[C@@H]1O[C@H](CO)[C@@H](O)[C@@H]1O [Nelarabine] (10000 nM)
normalised response (BT-474): 96% | normalised response (BT-549): 87.5% | normalised response (CAL-120): 93.8% | normalised response (CAL-148): 100% | normalised response (CAL-51): 111% | normalised response (CAL-85-1): 138% | normalised response (DU-4475): 98.5% | normalised response (HCC1143): 99.1% | normalised response (HCC1599): 96.5% | normalised response (HCC1937): 94.5% | normalised response (HDQ-P1): 111% | normalised response (Hs578T): 91.4% | normalised response (MCF-10A): 83.2% | normalised response (MDA-MB-231): 97.9% | normalised response (MDA-MB-436): 91% | normalised response (MDA-MB-453): 87% | normalised response (MDA-MB-468): 122% | normalised response (MFM-223): 87.6%

C[C@]12C=CC(=O)C=C1CC[C@@H]1[C@@H]2[C@@H](O)C[C@@]2(C)[C@H]1CC[C@]2(O)C(=O)CO [Prednisolone] (10000 nM)
normalised response (BT-474): 101% | normalised response (BT-549): 90.8% | normalised response (CAL-120): 99.8% | normalised response (CAL-148): 101% | normalised response (CAL-51): 102% | normalised response (CAL-85-1): 84.1% | normalised response (DU-4475): 100% | normalised response (HCC1143): 51% | normalised response (HCC1599): 97.9% | normalised response (HCC1937): 56.3% | normalised response (HDQ-P1): 57.2% | normalised response (Hs578T): 66.8% | normalised response (MCF-10A): 100% | normalised response (MDA-MB-231): 150% | normalised response (MDA-MB-436): 60.2% | normalised response (MDA-MB-453): 94.6% | normalised response (MDA-MB-468): 154% | normalised response (MFM-223): 99.7%

CC[C@@]1(O)C(=O)OCc2c1cc1n(c2=O)Cc2cc3c(CN(C)C)c(O)ccc3nc2-1 [Topotecan] (100 nM)
normalised response (BT-474): 103% | normalised response (BT-549): 92.8% | normalised response (CAL-120): 98.9% | normalised response (CAL-148): 37.6% | normalised response (CAL-51): 65% | normalised response (CAL-85-1): 100% | normalised response (DU-4475): 94.9% | normalised response (HCC1143): 74.7% | normalised response (HCC1599): 90.7% | normalised response (HCC1937): 52.5% | normalised response (HDQ-P1): 103% | normalised response (Hs578T): 98.7% | normalised response (MCF-10A): 106% | normalised response (MDA-MB-231): 108% | normalised response (MDA-MB-436): 76.5% | normalised response (MDA-MB-453): 108% | normalised response (MDA-MB-468): 91.8% | normalised response (MFM-223): 98%

Cc1c(CN2CCN(C(=O)[C@H](C)O)CC2)sc2c(N3CCOCC3)nc(-c3cnc(N)nc3)nc12 [GDC-0980] (10000 nM)
normalised response (BT-474): 53.5% | normalised response (BT-549): 95.2% | normalised response (CAL-120): 104% | normalised response (CAL-148): 49.1% | normalised response (CAL-51): 18% | normalised response (CAL-85-1): 58% | normalised response (DU-4475): 85.5% | normalised response (HCC1143): 47% | normalised response (HCC1599): 96.9% | normalised response (HCC1937): 101% | normalised response (HDQ-P1): 41.6% | normalised response (Hs578T): 98.8% | normalised response (MCF-10A): 88.3% | normalised response (MDA-MB-231): 98.1% | normalised response (MDA-MB-436): 98.5% | normalised response (MDA-MB-453): 86.7% | normalised response (MDA-MB-468): 119% | normalised response (MFM-223): -39.7%

COc1ccc(-c2cc3c(C)nc(N)nc3n([C@H]3CC[C@H](OCCO)CC3)c2=O)cn1 (1000 nM)
normalised response (BT-474): 49.8% | normalised response (BT-549): 115% | normalised response (CAL-120): 98.5% | normalised response (CAL-148): 51.2% | normalised response (CAL-51): 43.9% | normalised response (CAL-85-1): 79.9% | normalised response (DU-4475): 86.2% | normalised response (HCC1143): 79.8% | normalised response (HCC1599): 90.4% | normalised response (HCC1937): -51.2% | normalised response (HDQ-P1): 84.7% | normalised response (Hs578T): 101% | normalised response (MCF-10A): 93.2% | normalised response (MDA-MB-231): 76.8% | normalised response (MDA-MB-436): 113% | normalised response (MDA-MB-453): 84.2% | normalised response (MDA-MB-468): 123% | normalised response (MFM-223): 81%

CCN(CC)CCNC(=O)c1c(C)[nH]c(/C=C2\C(=O)Nc3ccc(F)cc32)c1C [Sunitinib] (1000 nM)
normalised response (BT-474): 95% | normalised response (BT-549): 104% | normalised response (CAL-120): 98.2% | normalised response (CAL-148): 85.4% | normalised response (CAL-51): 106% | normalised response (CAL-85-1): 66.5% | normalised response (DU-4475): 99.7% | normalised response (HCC1143): 82.8% | normalised response (HCC1599): 105% | normalised response (HCC1937): 93.9% | normalised response (HDQ-P1): 101% | normalised response (Hs578T): 95.9% | normalised response (MCF-10A): 80.6% | normalised response (MDA-MB-231): 124% | normalised response (MDA-MB-436): 106% | normalised response (MDA-MB-453): 104% | normalised response (MDA-MB-468): 66.4% | normalised response (MFM-223): 99.2%

CCN(CC)CCNC(=O)c1c(C)[nH]c(/C=C2\C(=O)Nc3ccc(F)cc32)c1C [Sunitinib] (100 nM)
normalised response (BT-474): 103% | normalised response (BT-549): 127% | normalised response (CAL-120): 98.3% | normalised response (CAL-148): 86% | normalised response (CAL-51): 86.5% | normalised response (CAL-85-1): 99.8% | normalised response (DU-4475): 98.1% | normalised response (HCC1143): 107% | normalised response (HCC1599): 106% | normalised response (HCC1937): 114% | normalised response (HDQ-P1): 76.8% | normalised response (Hs578T): 77% | normalised response (MCF-10A): 108% | normalised response (MDA-MB-231): 123% | normalised response (MDA-MB-436): 97.1% | normalised response (MDA-MB-453): 102% | normalised response (MDA-MB-468): 102% | normalised response (MFM-223): 101%

O=C1c2c(O)ccc(O)c2C(=O)c2c(NCCNCCO)ccc(NCCNCCO)c21 [Mitoxantrone] (100 nM)
normalised response (BT-474): 101% | normalised response (BT-549): 117% | normalised response (CAL-120): -30.1% | normalised response (CAL-148): 82.3% | normalised response (CAL-51): 92.8% | normalised response (CAL-85-1): 101% | normalised response (DU-4475): 99.1% | normalised response (HCC1143): 109% | normalised response (HCC1599): 91% | normalised response (HCC1937): 117% | normalised response (HDQ-P1): 101% | normalised response (Hs578T): 106% | normalised response (MCF-10A): 113% | normalised response (MDA-MB-231): 94.8% | normalised response (MDA-MB-436): 87.8% | normalised response (MDA-MB-453): 104% | normalised response (MDA-MB-468): 158% | normalised response (MFM-223): 101%
